What was measured:
Experiment in all cases: cells
BT-20 = assay type: functional, cell-based, Homo sapiens; conditions: Homo sapiens, BT-20;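 note: cell viability assay measuring suppression of growth in human BT-20 cells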
Description: SANGER: Inhibition of human BT-20 cell growth in a cell viability assay.

PA-1 = assay type: functional, cell-based, Homo sapiens; conditions: Homo sapiens, PA-1;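 note: IC50 for suppression of PA-1 cell proliferation, determined with a cell viability read-out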
Description: SANGER: Inhibition of human PA-1 cell growth in a cell viability assay.

SW948 = assay type: functional, cell-based, Homo sapiens; conditions: Homo sapiens, SW948;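 note: growth inhibition of SW948 cells, read out with a cell viability assay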
Description: SANGER: Inhibition of human SW948 cell growth in a cell viability assay.

NCI-H2342 = assay type: functional, cell-based, Homo sapiens; conditions: Homo sapiens, NCI-H2342;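 note: growth inhibition of the cancer cell line, determined with a cell viability assay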
Description: SANGER: Inhibition of human NCI-H2342 cell growth in a cell viability assay.

NCI-H1755 = assay type: functional, cell-based, Homo sapiens; conditions: Homo sapiens, NCI-H1755;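 note: cell viability readout used to measure growth inhibition of NCI-H1755 cells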
Description: SANGER: Inhibition of human NCI-H1755 cell growth in a cell viability assay.

HuCCT-1 = assay type: functional, cell-based, Homo sapiens, HuCCT1; conditions: Homo sapiens, HuCCT-1;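 note: growth inhibition of HuCCT-1 cells, read out by a cell viability assay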
Description: SANGER: Inhibition of human HuCCT1 cell growth in a cell viability assay.

RPMI-2650 = assay type: functional, cell-based, Homo sapiens; conditions: Homo sapiens, RPMI-2650
Description: SANGER: Inhibition of human RPMI-2650 cell growth in a cell viability assay.

CAL-39 = assay type: functional, cell-based, Homo sapiens; conditions: Homo sapiens, CAL-39;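 note: cell viability assay measuring growth inhibition of CAL-39 cells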
Description: SANGER: Inhibition of human CAL-39 cell growth in a cell viability assay.

A2058 = assay type: functional, cell-based, Homo sapiens; conditions: Homo sapiens, A2058;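 note: reduction of A2058 cell growth, read out with a viability assay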
Description: SANGER: Inhibition of human A2058 cell growth in a cell viability assay.

SW1573 = assay type: functional, cell-based, Homo sapiens; conditions: Homo sapiens, SW1573;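 note: growth inhibition of SW1573 cells, read out with a cell viability assay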
Description: SANGER: Inhibition of human SW1573 cell growth in a cell viability assay.

SW-620 = assay type: functional, cell-based, Homo sapiens; conditions: Homo sapiens, SW-620;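 note: growth inhibition of human SW-620 cells, measured by a cell viability assay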
Description: SANGER: Inhibition of human SW620 cell growth in a cell viability assay.

MHH-ES-1 = assay type: functional, cell-based, Homo sapiens; conditions: Homo sapiens, MHH-ES-1;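 note: cell growth inhibition measured by a cell viability assay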
Description: SANGER: Inhibition of human MHH-ES-1 cell growth in a cell viability assay.

UMC-11 = assay type: functional, cell-based, Homo sapiens; conditions: Homo sapiens, UMC-11;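 note: growth inhibition of UMC-11 cells, read out with a cell viability assay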
Description: SANGER: Inhibition of human UMC-11 cell growth in a cell viability assay.

NCI-H2228 = assay type: functional, cell-based, Homo sapiens; conditions: Homo sapiens, NCI-H2228;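 note: growth inhibition of human NCI-H2228 cells, read out by a cell viability assay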
Description: SANGER: Inhibition of human NCI-H2228 cell growth in a cell viability assay.

CHL-1 = assay type: functional, cell-based, Homo sapiens; conditions: Homo sapiens, CHL-1;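 note: cell growth inhibition, read out with a cell viability assay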
Description: SANGER: Inhibition of human CHL-1 cell growth in a cell viability assay.

T84 = assay type: functional, cell-based, Homo sapiens; conditions: Homo sapiens, T84;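 note: growth inhibition measured with a cell viability readout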
Description: SANGER: Inhibition of human T84 cell growth in a cell viability assay.

HCC70 = assay type: functional, cell-based, Homo sapiens; conditions: Homo sapiens, HCC70;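 note: cell viability assay measuring how strongly the compound suppresses proliferation of HCC70 cells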
Description: SANGER: Inhibition of human HCC70 cell growth in a cell viability assay.

YAPC = assay type: functional, cell-based, Homo sapiens; conditions: Homo sapiens, YAPC;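 note: growth inhibition of YAPC cells, measured with a cell viability assay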
Description: SANGER: Inhibition of human YAPC cell growth in a cell viability assay.

SK-N-AS = assay type: functional, cell-based, Homo sapiens; conditions: Homo sapiens, SK-N-AS;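 note: growth inhibition of human SK-N-AS cells, measured with a cell viability assay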
Description: SANGER: Inhibition of human SK-N-AS cell growth in a cell viability assay.

SW 1116 = assay type: functional, cell-based, Homo sapiens; conditions: Homo sapiens, SW 1116;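 note: growth inhibition of SW1116 cells, read out with a cell viability assay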
Description: SANGER: Inhibition of human SW1116 cell growth in a cell viability assay.

COR-L23 = assay type: functional, cell-based, Homo sapiens; conditions: Homo sapiens, COR-L23;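 note: cell viability assay measuring how strongly compounds suppress growth of COR-L23 cells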
Description: SANGER: Inhibition of human COR-L23 cell growth in a cell viability assay.

CAL-72 = assay type: functional, cell-based, Homo sapiens; conditions: Homo sapiens, CAL-72;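 note: cell viability assay measuring inhibition of proliferation in the CAL-72 cell line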
Description: SANGER: Inhibition of human CAL-72 cell growth in a cell viability assay.

HCT-116 = assay type: functional, cell-based, Homo sapiens; conditions: Homo sapiens, HCT-116
Description: SANGER: Inhibition of human HCT-116 cell growth in a cell viability assay.

NCI-H1693 = assay type: functional, cell-based, Homo sapiens; conditions: Homo sapiens, NCI-H1693;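 note: growth inhibition of the human cell line, read out with a cell viability assay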
Description: SANGER: Inhibition of human NCI-H1693 cell growth in a cell viability assay.

H-EMC-SS = assay type: functional, cell-based, Homo sapiens; conditions: Homo sapiens, H-EMC-SS
Description: SANGER: Inhibition of human H-EMC-SS cell growth in a cell viability assay.

YH-13 = assay type: functional, cell-based, Homo sapiens; conditions: Homo sapiens, YH-13;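 note: cell viability readout of growth suppression in the human YH-13 cell line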
Description: SANGER: Inhibition of human YH-13 cell growth in a cell viability assay.

U2OS = assay type: functional, cell-based, Homo sapiens, U-2-OS; conditions: Homo sapiens, U2OS;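 note: growth inhibition of human U-2-OS cells, determined with a cell viability assay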
Description: SANGER: Inhibition of human U-2-OS cell growth in a cell viability assay.

OE33 = assay type: functional, cell-based, Homo sapiens; conditions: Homo sapiens, OE33;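 note: growth inhibition of human OE33 cells, measured by a cell viability assay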
Description: SANGER: Inhibition of human OE33 cell growth in a cell viability assay.

HEC-1 = assay type: functional, cell-based, Homo sapiens; conditions: Homo sapiens, HEC-1;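 note: growth inhibition of the cell line, read out with a cell viability assay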
Description: SANGER: Inhibition of human HEC-1 cell growth in a cell viability assay.

EGI-1 = assay type: functional, cell-based, Homo sapiens; conditions: Homo sapiens, EGI-1;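 note: cell viability readout used to gauge growth inhibition of EGI-1 cells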
Description: SANGER: Inhibition of human EGI-1 cell growth in a cell viability assay.

Calu-3 = assay type: functional, cell-based, Homo sapiens; conditions: Homo sapiens, Calu-3;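 note: growth inhibition of human Calu-3 cells, determined with a cell viability assay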
Description: SANGER: Inhibition of human Calu-3 cell growth in a cell viability assay.

NCI-H460 = assay type: functional, cell-based, Homo sapiens; conditions: Homo sapiens, NCI-H460;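 note: cell viability assay scoring growth inhibition of human NCI-H460 cells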
Description: SANGER: Inhibition of human NCI-H460 cell growth in a cell viability assay.

U-251 = assay type: functional, cell-based, Homo sapiens; conditions: Homo sapiens, U-251;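 note: growth inhibition of human U-251 cells, read out through a cell viability assay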
Description: SANGER: Inhibition of human U251 cell growth in a cell viability assay.

AGS = assay type: functional, cell-based, Homo sapiens; conditions: Homo sapiens, AGS;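 note: growth inhibition of AGS cells, determined with a cell viability assay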
Description: SANGER: Inhibition of human AGS cell growth in a cell viability assay.

COLO-792 = assay type: functional, cell-based, Homo sapiens; conditions: Homo sapiens, COLO-792
Description: SANGER: Inhibition of human COLO-792 cell growth in a cell viability assay.

MEL-JUSO = assay type: functional, cell-based, Homo sapiens; conditions: Homo sapiens, MEL-JUSO;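 note: growth inhibition of human MEL-JUSO cells, read out with a cell viability assay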
Description: SANGER: Inhibition of human MEL-JUSO cell growth in a cell viability assay.

SMILES | IC50 (BT-20) [µM] | IC50 (PA-1) [µM] | IC50 (SW948) [µM] | IC50 (NCI-H2342) [µM] | IC50 (NCI-H1755) [µM] | IC50 (HuCCT-1) [µM] | IC50 (RPMI-2650) [µM] | IC50 (CAL-39) [µM] | IC50 (A2058) [µM] | IC50 (SW1573) [µM] | IC50 (SW-620) [µM] | IC50 (MHH-ES-1) [µM] | IC50 (UMC-11) [µM] | IC50 (NCI-H2228) [µM] | IC50 (CHL-1) [µM] | IC50 (T84) [µM] | IC50 (HCC70) [µM] | IC50 (YAPC) [µM] | IC50 (SK-N-AS) [µM] | IC50 (SW 1116) [µM] | also measured
COc1cc2c(Nc3ccc(NC(=O)c4ccccc4)cc3)ncnc2cc1OCCCN1CCOCC1 | > 4 | 2.87 | > 4 | > 4 | > 4 | > 4 | > 4 | > 4 | > 4 | > 4 | > 4 | 2.13 | 2.37 | > 4 | 3.42 | > 4 | > 4 | > 4 | > 4 | > 4 | IC50 (COR-L23): > 4 µM; IC50 (CAL-72): > 4 µM; IC50 (HCT-116): 1.81 µM; IC50 (NCI-H1693): > 4 µM; IC50 (H-EMC-SS): > 4 µM; IC50 (YH-13): > 4 µM; IC50 (U2OS): > 4 µM; IC50 (OE33): > 4 µM; IC50 (HEC-1): > 4 µM; IC50 (EGI-1): > 4 µM; IC50 (Calu-3): > 4 µM; IC50 (NCI-H460): 3.07 µM; IC50 (U-251): > 4 µM; IC50 (AGS): > 4 µM; IC50 (COLO-792): > 4 µM
CC(C)c1ccccc1Cc1cc(C(=O)Nc2ccc(S(=O)(=O)c3ccccc3C(C)(C)C)cc2)c(O)c(O)c1O | 0.656 | 0.134 | 32.7 | 0.267 | 1.62 | 0.348 | 0.238 | 0.341 | 0.367 | 0.24 | 0.961 | 0.5 | 1.31 | 0.662 | 0.0119 | 13.9 | 0.858 | 0.801 | 0.181 | 8.45 | IC50 (MEL-JUSO): 0.439 µM; IC50 (COR-L23): 0.591 µM; IC50 (CAL-72): 0.968 µM; IC50 (HCT-116): 0.0527 µM; IC50 (NCI-H1693): 1.25 µM; IC50 (H-EMC-SS): 0.378 µM; IC50 (YH-13): 0.0706 µM; IC50 (U2OS): 0.552 µM; IC50 (OE33): 0.695 µM; IC50 (HEC-1): 0.0814 µM; IC50 (EGI-1): 1.25 µM; IC50 (Calu-3): 5.4 µM; IC50 (NCI-H460): 0.306 µM; IC50 (U-251): 0.388 µM; IC50 (AGS): 0.0375 µM; IC50 (COLO-792): 0.247 µM
CC(C)CCN1c2nc(Nc3cc(F)c(O)c(F)c3)ncc2N(C)C(=O)C1C (stereo not drawn) | > 5 | > 5 | > 5 | > 5 | > 5 | > 5 | > 5 | 4.94 | > 5 | > 5 | > 5 | 4.83 | > 5 | > 5 | 1.96 | > 5 | > 5 | > 5 | 2.29 | > 5 | IC50 (MEL-JUSO): > 5 µM; IC50 (COR-L23): 4.74 µM; IC50 (CAL-72): > 5 µM; IC50 (HCT-116): > 5 µM; IC50 (NCI-H1693): > 5 µM; IC50 (H-EMC-SS): > 5 µM; IC50 (YH-13): > 5 µM; IC50 (U2OS): > 5 µM; IC50 (OE33): > 5 µM; IC50 (HEC-1): > 5 µM; IC50 (EGI-1): > 5 µM; IC50 (Calu-3): > 5 µM; IC50 (NCI-H460): > 5 µM; IC50 (U-251): 2.73 µM; IC50 (AGS): 2.34 µM; IC50 (COLO-792): > 5 µM
Nc1cccc2c1CN(C1CCC(=O)NC1=O)C2=O (stereo not drawn) [LENALIDOMIDE] | > 5 | > 5 | > 5 | > 5 | > 5 | > 5 | > 5 | > 5 | > 5 | > 5 | > 5 | > 5 | > 5 | > 5 | > 5 | > 5 | > 5 | > 5 | > 5 | > 5 | IC50 (MEL-JUSO): > 5 µM; IC50 (COR-L23): > 5 µM; IC50 (CAL-72): > 5 µM; IC50 (HCT-116): > 5 µM; IC50 (NCI-H1693): > 5 µM; IC50 (H-EMC-SS): > 5 µM; IC50 (YH-13): > 5 µM; IC50 (U2OS): > 5 µM; IC50 (OE33): > 5 µM; IC50 (HEC-1): > 5 µM; IC50 (EGI-1): > 5 µM; IC50 (Calu-3): > 5 µM; IC50 (NCI-H460): > 5 µM; IC50 (U-251): > 5 µM; IC50 (AGS): > 5 µM; IC50 (COLO-792): > 5 µM
